US8343998B2, “Triazolothiadiazole inhibitor of c-Met protein kinase” (Vertex Pharmaceuticals Incorporated, priority 2008, dated 2013)
In brackets after ≈: the same amount, converted by molar mass. Several values for one entry are separate records, joined by “and”; a condition that tells them apart may be missing. Identical values can stand only once. Like-named read-outs stand apart in the source and are kept apart here.

Experiments:
[1] = biological target: T1, CYP2C19 (Homo sapiens, UniProt P33261); experiment: Stability in human recombinant CYP isoform; assay type: in vitro ADME
T1 construct: host or cells: baculovirus-infected insect cells
T1 sequence (P33261 whole entry, canonical isoform): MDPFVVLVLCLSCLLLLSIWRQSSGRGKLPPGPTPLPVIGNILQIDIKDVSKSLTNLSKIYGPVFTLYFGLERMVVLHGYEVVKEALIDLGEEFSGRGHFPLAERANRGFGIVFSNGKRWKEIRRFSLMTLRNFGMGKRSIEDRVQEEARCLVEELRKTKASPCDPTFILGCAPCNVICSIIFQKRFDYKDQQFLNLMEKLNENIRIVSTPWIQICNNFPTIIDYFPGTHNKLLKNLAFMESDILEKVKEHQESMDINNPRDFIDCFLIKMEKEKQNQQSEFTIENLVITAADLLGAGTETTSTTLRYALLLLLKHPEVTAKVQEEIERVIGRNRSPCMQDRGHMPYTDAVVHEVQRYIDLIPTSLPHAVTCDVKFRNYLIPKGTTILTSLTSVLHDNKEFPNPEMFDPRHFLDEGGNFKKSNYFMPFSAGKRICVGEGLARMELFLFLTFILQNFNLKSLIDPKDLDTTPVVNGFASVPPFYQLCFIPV
Protocol: (§1) The stability of compound 1 was evaluated in cDNA Baculovirus-insect cell-expressed human cytochrome P450 (CYP) isoforms CYP1A2, CYP2B6, CYP2C9, CYP2C19, CYP2D6, CYP2E1, and CYP3A4. Accordingly, the human recombinant cytochrome P450 isoforms at a final concentration of 50 pmoles of CYP/mL were incubated in phosphate buffer (pH 7.4) with 2.0 mM NADPH and compound 1 at compound concentrations of 1 μM and 10 μM. Sampling was conducted at 0 and 120 minutes and the amount of compound remaining was evaluated by LC/MS/MS analysis.

[2] = biological target: T2, CYP2D6 (Homo sapiens, UniProt P10635); experiment: Stability in human recombinant CYP isoform; assay type: in vitro ADME; settings: 120 minutes, 50 pmoles CYP/mL, NADPH, two separate studies (two lines)
T2 construct: host or cells: baculovirus-infected insect cells
T2 sequence (P10635 whole entry, canonical isoform): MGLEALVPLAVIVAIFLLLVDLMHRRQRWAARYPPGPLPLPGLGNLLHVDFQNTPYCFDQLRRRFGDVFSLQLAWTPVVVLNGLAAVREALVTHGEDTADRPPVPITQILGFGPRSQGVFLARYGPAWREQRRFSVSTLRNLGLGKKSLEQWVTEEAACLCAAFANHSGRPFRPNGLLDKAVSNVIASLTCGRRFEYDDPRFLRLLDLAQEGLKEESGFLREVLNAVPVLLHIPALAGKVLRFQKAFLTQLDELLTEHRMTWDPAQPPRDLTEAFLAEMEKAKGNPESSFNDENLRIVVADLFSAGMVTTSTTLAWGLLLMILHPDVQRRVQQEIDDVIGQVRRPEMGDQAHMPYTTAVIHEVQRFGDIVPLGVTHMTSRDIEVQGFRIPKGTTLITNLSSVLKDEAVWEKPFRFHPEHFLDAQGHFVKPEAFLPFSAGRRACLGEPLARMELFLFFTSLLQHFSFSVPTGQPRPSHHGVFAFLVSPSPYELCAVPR
Protocol: as §1

[3] = biological target: T3, CYP2B6 (Homo sapiens, UniProt P20813); experiment: Stability in human recombinant CYP isoform; assay type: in vitro ADME; settings: 120 minutes, 50 pmoles CYP/mL, NADPH, two separate studies (two lines)
T3 construct: host or cells: baculovirus-infected insect cells
T3 sequence (P20813 1-491): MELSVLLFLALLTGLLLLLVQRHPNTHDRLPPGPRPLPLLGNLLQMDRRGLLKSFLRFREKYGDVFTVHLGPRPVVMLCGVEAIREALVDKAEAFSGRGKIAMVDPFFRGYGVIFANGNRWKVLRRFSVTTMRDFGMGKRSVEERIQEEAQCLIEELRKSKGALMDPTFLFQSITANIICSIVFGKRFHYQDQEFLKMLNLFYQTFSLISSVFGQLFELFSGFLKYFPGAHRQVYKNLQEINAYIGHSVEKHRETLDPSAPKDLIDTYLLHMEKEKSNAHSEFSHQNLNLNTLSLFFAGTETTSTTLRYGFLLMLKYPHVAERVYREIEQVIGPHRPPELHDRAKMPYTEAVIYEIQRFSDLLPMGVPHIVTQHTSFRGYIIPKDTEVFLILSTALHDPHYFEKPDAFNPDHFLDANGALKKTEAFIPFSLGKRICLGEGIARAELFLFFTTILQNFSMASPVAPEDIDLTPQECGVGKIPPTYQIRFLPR
Protocol: as §1

[4] = biological target: T4, CYP1A2 (Homo sapiens, UniProt P05177); experiment: Stability in human recombinant CYP isoform; assay type: in vitro ADME; settings: 120 minutes, 50 pmoles CYP/mL, NADPH, two separate studies (two lines)
T4 construct: host or cells: baculovirus-infected insect cells
T4 sequence (P05177 1-516): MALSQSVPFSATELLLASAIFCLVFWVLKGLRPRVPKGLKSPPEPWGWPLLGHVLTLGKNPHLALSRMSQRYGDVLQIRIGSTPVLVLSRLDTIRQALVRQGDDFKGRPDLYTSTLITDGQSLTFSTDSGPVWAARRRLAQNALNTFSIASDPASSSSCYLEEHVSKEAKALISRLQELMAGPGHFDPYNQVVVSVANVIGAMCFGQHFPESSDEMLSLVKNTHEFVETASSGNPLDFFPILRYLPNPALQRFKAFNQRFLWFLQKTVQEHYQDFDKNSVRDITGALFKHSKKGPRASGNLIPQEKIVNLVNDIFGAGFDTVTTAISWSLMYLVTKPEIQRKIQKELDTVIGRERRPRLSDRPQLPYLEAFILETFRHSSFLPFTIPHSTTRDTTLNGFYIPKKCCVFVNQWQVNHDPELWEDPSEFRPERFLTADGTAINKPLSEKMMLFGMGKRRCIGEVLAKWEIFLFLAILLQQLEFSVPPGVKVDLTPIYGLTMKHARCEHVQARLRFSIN
Protocol: as §1

[5] = biological target: T5, CYP2C9 (Homo sapiens, UniProt P11712); experiment: Stability in human recombinant CYP isoform; assay type: in vitro ADME; settings: 120 minutes, 50 pmoles CYP/mL, NADPH, two separate studies (two lines)
T5 construct: host or cells: baculovirus-infected insect cells
T5 sequence (P11712 whole entry, canonical isoform): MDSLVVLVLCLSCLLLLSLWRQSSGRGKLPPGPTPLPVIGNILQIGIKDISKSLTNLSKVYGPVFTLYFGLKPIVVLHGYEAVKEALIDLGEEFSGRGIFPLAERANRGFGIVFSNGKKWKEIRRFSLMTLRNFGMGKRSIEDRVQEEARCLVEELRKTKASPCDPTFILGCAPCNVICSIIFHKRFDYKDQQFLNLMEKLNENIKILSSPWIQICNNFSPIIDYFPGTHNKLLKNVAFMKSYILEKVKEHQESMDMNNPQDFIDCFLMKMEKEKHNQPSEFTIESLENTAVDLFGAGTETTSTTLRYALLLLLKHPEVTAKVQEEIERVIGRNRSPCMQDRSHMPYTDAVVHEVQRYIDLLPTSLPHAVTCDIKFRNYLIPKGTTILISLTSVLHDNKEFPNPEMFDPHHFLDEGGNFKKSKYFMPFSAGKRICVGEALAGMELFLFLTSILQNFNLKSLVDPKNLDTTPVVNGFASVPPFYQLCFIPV
Protocol: as §1

[6] = biological target: T6, CYP2E1 (Homo sapiens, UniProt P05181); experiment: Stability in human recombinant CYP isoform; assay type: in vitro ADME; settings: 120 minutes, 50 pmoles CYP/mL, NADPH, two separate studies (two lines)
T6 construct: host or cells: baculovirus-infected insect cells
T6 sequence (P05181 whole entry, canonical isoform): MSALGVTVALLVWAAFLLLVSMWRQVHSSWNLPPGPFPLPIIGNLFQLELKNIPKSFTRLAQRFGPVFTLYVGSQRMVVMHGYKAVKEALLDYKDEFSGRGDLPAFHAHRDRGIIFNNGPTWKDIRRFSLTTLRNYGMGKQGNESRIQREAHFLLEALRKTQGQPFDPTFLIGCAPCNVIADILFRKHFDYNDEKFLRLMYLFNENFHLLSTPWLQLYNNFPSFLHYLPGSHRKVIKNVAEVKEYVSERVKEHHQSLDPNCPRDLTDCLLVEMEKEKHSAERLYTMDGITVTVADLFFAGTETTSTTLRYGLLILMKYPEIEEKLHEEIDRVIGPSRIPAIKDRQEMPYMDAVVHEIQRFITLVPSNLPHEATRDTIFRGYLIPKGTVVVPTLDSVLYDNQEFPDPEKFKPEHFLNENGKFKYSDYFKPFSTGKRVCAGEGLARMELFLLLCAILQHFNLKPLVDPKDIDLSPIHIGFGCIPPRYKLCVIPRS
Protocol: as §1

[7] = biological target: T7, CYP3A4 (Homo sapiens, UniProt P08684); experiment: Stability in human recombinant CYP isoform; assay type: in vitro ADME
T7 construct: host or cells: baculovirus-infected insect cells
T7 sequence (P08684 whole entry, canonical isoform): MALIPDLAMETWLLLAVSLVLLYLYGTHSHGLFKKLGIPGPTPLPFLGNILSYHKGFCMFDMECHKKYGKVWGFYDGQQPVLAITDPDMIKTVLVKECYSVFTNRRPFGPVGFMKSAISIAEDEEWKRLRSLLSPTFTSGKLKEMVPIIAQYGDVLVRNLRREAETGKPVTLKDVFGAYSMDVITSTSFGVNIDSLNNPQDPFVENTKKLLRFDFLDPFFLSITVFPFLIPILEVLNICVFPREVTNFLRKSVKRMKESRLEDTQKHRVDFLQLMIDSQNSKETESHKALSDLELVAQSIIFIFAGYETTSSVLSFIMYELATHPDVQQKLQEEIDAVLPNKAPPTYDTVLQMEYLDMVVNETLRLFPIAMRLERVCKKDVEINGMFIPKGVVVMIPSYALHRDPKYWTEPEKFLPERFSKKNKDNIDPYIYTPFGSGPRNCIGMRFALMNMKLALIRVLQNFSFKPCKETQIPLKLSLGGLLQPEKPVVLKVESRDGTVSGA
Protocol: as §1

[8] = biological target: T8, hERG (Homo sapiens, UniProt Q12809); experiment: hERG inhibition assay, whole cell recording in HEK293 cells expressing hERG; assay type: cell-based; settings: hERG current, peak tail current
T8 construct: host or cells: HEK293
T8 sequence (Q12809 whole entry): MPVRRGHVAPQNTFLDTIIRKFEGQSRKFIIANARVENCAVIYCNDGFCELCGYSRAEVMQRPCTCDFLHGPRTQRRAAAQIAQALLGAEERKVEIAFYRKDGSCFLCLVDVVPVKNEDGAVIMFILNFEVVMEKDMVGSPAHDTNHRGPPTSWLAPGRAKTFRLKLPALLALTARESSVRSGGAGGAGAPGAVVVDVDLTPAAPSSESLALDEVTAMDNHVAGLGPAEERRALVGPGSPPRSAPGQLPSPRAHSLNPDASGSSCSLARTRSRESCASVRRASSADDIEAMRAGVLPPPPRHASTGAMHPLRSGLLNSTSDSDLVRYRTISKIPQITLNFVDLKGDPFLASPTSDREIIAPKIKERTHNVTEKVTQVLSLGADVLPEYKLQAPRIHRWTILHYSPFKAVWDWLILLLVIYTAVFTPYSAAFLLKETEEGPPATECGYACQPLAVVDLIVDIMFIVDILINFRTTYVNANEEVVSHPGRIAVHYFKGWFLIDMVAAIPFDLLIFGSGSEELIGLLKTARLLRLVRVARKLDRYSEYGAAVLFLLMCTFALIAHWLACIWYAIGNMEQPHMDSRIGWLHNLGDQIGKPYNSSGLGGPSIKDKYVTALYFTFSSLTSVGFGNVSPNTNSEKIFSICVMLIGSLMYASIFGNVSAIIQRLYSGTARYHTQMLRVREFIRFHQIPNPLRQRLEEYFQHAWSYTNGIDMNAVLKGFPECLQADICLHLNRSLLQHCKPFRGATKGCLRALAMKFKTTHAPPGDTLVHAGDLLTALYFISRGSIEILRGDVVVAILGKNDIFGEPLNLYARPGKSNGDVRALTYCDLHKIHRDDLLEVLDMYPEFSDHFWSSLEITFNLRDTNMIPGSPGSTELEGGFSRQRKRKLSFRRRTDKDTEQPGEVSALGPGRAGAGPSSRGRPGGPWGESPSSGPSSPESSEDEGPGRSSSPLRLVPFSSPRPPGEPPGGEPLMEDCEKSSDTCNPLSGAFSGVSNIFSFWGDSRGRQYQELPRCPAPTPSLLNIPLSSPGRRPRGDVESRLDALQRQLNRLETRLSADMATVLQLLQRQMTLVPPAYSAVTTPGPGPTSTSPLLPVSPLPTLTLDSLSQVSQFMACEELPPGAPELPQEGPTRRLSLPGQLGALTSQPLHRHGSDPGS
Protocol: Peak tail current was measured during the 2 second step to −50 mV.

[9] = biological target: T9, c-Met (Homo sapiens, UniProt P08581); experiment: Inhibition of c-Met activity in Snu5 gastric carcinoma cells (Snu5-AP1-Luc-Pest luciferase signal); assay type: cell-based; settings: 6 hours, luciferase luminescence
T9 construct: is a human gastric carcinoma known to overexpress c-Met, which is constitutively active; host or cells: Snu5-AP1-Luc-Pest (Snu5 transduced with an AP1-luciferase-PEST reporter)
T9 sequence (P08581 25-1390): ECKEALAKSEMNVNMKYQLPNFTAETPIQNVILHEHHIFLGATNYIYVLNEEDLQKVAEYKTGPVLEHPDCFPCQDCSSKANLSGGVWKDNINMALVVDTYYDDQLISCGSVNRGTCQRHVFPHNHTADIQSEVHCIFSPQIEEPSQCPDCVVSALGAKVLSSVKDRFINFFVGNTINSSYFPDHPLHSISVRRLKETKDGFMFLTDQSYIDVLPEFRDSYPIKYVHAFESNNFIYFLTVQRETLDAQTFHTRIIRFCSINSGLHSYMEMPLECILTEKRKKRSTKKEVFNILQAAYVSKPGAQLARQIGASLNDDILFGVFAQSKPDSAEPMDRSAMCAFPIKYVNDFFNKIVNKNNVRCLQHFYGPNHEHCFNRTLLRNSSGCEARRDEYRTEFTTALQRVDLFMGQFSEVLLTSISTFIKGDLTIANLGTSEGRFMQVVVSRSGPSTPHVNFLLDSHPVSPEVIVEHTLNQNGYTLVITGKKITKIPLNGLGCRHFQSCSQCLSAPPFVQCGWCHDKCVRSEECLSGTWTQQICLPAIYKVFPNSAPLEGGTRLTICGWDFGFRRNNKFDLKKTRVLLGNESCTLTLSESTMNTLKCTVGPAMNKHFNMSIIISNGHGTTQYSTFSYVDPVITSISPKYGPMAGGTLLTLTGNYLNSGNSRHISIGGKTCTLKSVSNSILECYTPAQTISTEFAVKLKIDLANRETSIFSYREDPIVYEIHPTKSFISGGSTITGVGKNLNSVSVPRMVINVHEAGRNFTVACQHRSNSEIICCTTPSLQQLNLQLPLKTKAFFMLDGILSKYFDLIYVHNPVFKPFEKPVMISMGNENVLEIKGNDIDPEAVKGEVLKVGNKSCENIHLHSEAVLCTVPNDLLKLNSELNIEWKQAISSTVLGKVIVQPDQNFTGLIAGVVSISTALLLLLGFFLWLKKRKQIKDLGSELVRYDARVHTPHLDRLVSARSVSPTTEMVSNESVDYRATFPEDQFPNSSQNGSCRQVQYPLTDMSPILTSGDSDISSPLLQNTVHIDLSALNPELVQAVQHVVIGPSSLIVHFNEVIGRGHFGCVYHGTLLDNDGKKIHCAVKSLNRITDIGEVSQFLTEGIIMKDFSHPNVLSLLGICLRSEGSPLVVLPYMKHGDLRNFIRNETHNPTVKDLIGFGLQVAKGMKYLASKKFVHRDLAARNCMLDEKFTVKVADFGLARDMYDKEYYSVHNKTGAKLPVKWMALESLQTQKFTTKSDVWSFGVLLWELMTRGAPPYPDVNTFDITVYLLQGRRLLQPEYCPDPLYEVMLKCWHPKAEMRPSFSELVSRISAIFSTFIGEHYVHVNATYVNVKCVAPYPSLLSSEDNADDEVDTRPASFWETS
Text: Compound 1 was also screened for their ability to inhibit the Luciferase-induced signal in an engineered Snu5 cell line. Snu5 [obtained from American Type Culture Collection (Catalog number CRL-5973)] is a human gastric carcinoma known to overexpress c-Met, which is constitutively active. […] The constitutively active c-Met activates cellular pathways (principally MAP kinase), resulting in AP-1-induced transcription of luciferase-PEST and translation into the final product, the activity of which is quantifiable as a chemiluminescent readout upon the addition of luciferin (Steady-Glo from Promega.). Residual luminescence is strongly correlated to the inhibition of c-Met. A stable cell line was obtained by selecting the new cell line (Snu5-AP1-Luc-Pest) with puromycin. The cells were grown in complete media [Iscove's media (Invitrogen) containing 10% fetal bovine serum (FBS, Hyclone) and penicillin/gentamycin (Invitrogen)]. Compounds of the invention were dissolved in DMSO to make 10 mM initial stock solutions. Serial dilutions in DMSO were then made and transferred to complete medium to make a 10× solution. The Snu5-AP1-Luc-Pest cells were counted and diluted to 200,000-cells/mL solution. […] The plate was read on a 1450 Microbeta Liquid Scintillation and Luminescence Counter (Perkin-Elmer). The IC50 was calculated using a 4-parameter fit using the graphing software Prism (GraphPad).

[10] = Solubility of compound 1 crystalline free base in different solvents, by HPLC; assay type: physicochemical; settings: thermodynamic from solid, crystalline free base slurry, room temperature, 4 day solution, read-out: Conc. FB (solubility)
Protocol: About 10 mg of compound 1, crystalline free base (FB), was loaded into a vial with a magnetic stir bar. About 150 μL of solvent were added to each vial. If compound 1 dissolved completely, more solid was added to the vial and stirring of the resulting slurry was continued at room temperature. The 4 day solution was filtered off using centrifuge filters and diluted in methanol to obtain solubility data by HPLC analysis. X-ray diffraction data of the crystals in the slurry were collected after 4 and 14 days.

[11] = compound at 10 μM, 120 minutes, 50 pmoles CYP/mL, NADPH, two separate studies (two lines)

Compound: C[C@@H](c1ccc2ncccc2c1)c1nnc2sc(-c3cnn(C)c3)nn12 [Compound 1, 6-((S)-1-(6-(1-methyl-1H-pyrazol-4-yl)-[1,2,4]triazolo[3,4-b][1,3,4]thiadiazol-3-yl)ethyl)quinoline]
- % remaining +/− SDEV [1, 11]: 40.3 +/− 2.2% and 34 +/− 3.3%
- Metabolism by the CYP isoform, in words ([1]; summary of Table 4): metabolized by both CYP2C19 and CYP3A4 isoforms
- % remaining +/− SDEV ([2]; compound at 1 μM): 102 +/− 3.6% and 125 +/− 44.2%
- % remaining +/− SDEV ([2]; compound at 10 μM): 94.7 +/− 4.4% and 130 +/− 11%
- % remaining +/− SDEV ([3]; compound at 1 μM): 93 +/− 5.4% and 91.7 +/− 10.4%
- % remaining +/− SDEV ([3]; compound at 10 μM): 99 +/− 4.8% and 101 +/− 1.4%
- % remaining +/− SDEV ([4]; compound at 1 μM): 113 +/− 7.2% and 79 +/− 9.6%
- % remaining +/− SDEV ([4]; compound at 10 μM): 96.7 +/− 4.3% and 86 +/− 7.8%
- % remaining +/− SDEV ([5]; compound at 1 μM): 128 +/− 22.5% and 96 +/− 2.2%
- % remaining +/− SDEV ([5]; compound at 10 μM): 101 +/− 4.4% and 101 +/− 8.5%
- % remaining +/− SDEV ([6]; compound at 1 μM): 109 +/− 19% and 164 +/− 54.8%
- % remaining +/− SDEV ([6]; compound at 10 μM): 109 +/− 5.6% and 111 +/− 1.1%
- % remaining +/− SDEV [7, 11]: 31.8 +/− 2.1% and 56 +/− 14%
- Metabolism by the CYP isoform, in words ([7]; summary of Table 4): metabolized by both CYP2C19 and CYP3A4 isoforms
- IC50 [8]: 110 µM
- IC50 [9]: 23 nM
- solubility at 4 day ([10]; organic solvent or mixture, solvent 2-Methyl THF): 9.03 mg/mL (≈ 25 mM)
- solubility at 4 day ([10]; organic solvent or mixture, solvent Acetone): 14.3 mg/mL (≈ 39.5 mM)
- solubility at 4 day ([10]; organic solvent or mixture, solvent Acetonitrile): 9.76 mg/mL (≈ 27 mM)
- solubility at 4 day ([10]; organic solvent or mixture, solvent Benzyl Alcohol): 362 mg/mL (≈ 1000 mM)
- solubility at 4 day ([10]; organic solvent or mixture, solvent Cumene): 2.52 mg/mL (≈ 6.97 mM)
- solubility at 4 day ([10]; organic solvent or mixture, solvent DCM): 116 mg/mL (≈ 322 mM)
- solubility at 4 day ([10]; organic solvent or mixture, solvent DME): 16.1 mg/mL (≈ 44.4 mM)
- solubility at 4 day ([10]; organic solvent or mixture, solvent DMSO): 67.7 mg/mL (≈ 187 mM)
- solubility at 4 day ([10]; organic solvent or mixture, solvent Diiodomethane): 81 mg/mL (≈ 224 mM)
- solubility at 4 day ([10]; organic solvent or mixture, solvent Dioxane): 36.8 mg/mL (≈ 102 mM)
- solubility at 4 day ([10]; organic solvent or mixture, solvent EtOAc): 7.24 mg/mL (≈ 20 mM)
- solubility at 4 day ([10]; organic solvent or mixture, solvent Ethanol): 42.1 mg/mL (≈ 116 mM)
- solubility at 4 day ([10]; organic solvent or mixture, solvent Ethylene Glycol): 35.3 mg/mL (≈ 97.8 mM)
- solubility at 4 day ([10]; organic solvent or mixture, solvent Glycerol): 0.69 mg/mL (≈ 1.91 mM)
- solubility at 4 day ([10]; organic solvent or mixture, solvent IPA): 7.92 mg/mL (≈ 21.9 mM)
- solubility at 4 day ([10]; organic solvent or mixture, solvent MEK): 14.2 mg/mL (≈ 39.4 mM)
- solubility at 4 day ([10]; organic solvent or mixture, solvent MTBE): 0.3 mg/mL (≈ 0.83 mM)
- solubility at 4 day ([10]; organic solvent or mixture, solvent Methanol): 41 mg/mL (≈ 114 mM)
- solubility at 4 day ([10]; organic solvent or mixture, solvent Nitromethane): 44.4 mg/mL (≈ 123 mM)
- solubility at 4 day ([10]; solvent water): 0.15 mg/mL (≈ 0.415 mM)
